Measured values: publication PMC3787745, “Yeast Mnn9 is both a priming glycosyltransferase and an allosteric activator of mannan biosynthesis” (Open Biology, 2013)

Biological target: T1, ScVan1 with ScMnn9 (M-Pol I complex) (Saccharomyces cerevisiae, UniProt P23642)
T1 construct: gene VAN1; separately expressed glycosyltransferase domains (Van1 87-535, Mnn9 93-395) mixed; heterodimer; MBP-His6 tags cleaved by TEV; E. coli BL21(DE3) pLysS; with Mannan polymerase complexes subunit MNN9
Assay: FACE gel of ANTS-labelled products
Type: biochemical
Conditions: donor 1.2 mM; acceptor 10 mM α-1,6-mannobiose; 10 mM MnCl2; 20 mM HEPES pH 7.5; 30°C; both subunits wild-type

T1 sequence (P23642 87-535): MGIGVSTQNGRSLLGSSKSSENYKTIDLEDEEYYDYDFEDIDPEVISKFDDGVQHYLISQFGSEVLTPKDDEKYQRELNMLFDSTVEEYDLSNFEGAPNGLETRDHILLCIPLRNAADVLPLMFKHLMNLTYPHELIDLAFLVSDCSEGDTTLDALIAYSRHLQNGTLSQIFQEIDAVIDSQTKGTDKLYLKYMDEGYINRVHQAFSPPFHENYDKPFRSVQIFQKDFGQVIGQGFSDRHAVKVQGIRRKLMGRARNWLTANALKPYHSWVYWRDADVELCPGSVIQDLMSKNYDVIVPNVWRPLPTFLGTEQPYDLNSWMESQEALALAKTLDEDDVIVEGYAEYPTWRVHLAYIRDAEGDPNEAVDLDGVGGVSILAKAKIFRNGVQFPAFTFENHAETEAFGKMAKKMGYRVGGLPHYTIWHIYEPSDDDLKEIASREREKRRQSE
T1 sequence (P39107 93-395 partner): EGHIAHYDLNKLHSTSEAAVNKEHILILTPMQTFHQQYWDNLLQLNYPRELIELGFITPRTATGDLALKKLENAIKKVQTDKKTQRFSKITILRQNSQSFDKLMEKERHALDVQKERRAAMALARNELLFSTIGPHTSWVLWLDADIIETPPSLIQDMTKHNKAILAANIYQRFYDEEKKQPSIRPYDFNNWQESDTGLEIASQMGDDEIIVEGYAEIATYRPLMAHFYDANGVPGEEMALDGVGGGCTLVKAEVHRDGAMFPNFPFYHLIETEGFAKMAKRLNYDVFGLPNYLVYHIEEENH

Nc1nc2c(ncn2[C@@H]2O[C@H](COP(=O)(O)OP(=O)(O)O[C@H]3O[C@H](CO)[C@@H](O)[C@H](O)[C@@H]3O)[C@@H](O)[C@H]2O)c(=O)[nH]1 [GDP-Man]
FACE gel of ANTS-labelled products: ScMnn9, ScVan1, GDP-Man, α-1,6-mannobiose and MnCl2 were incubated
